How the values were obtained:
[1] = tested on: non-target control (NT) Panc-1 spheroides; test: 3D spheroid growth, non-target control (NT) Panc-1; assay type: cell-based; settings: 30 μM
PATX162 tissue slices = test: Live Tissue Sensitivity Assay (LTSA), PATX162; assay type: cell-based; settings: single agent, 72 hours
Experimental: Animal experiment protocol was reviewed and approved by The University of Texas MD Anderson Cancer Center (Houston, Tex.) institutional review board and in accordance with the Guidelines for the Care and Use of Laboratory Animals published by the National Institutes of Health. PDXs were grown from cryopreserved early passages of PDXs in nude mice as described in previous publications (Kim M P, et al, Nat Protoc 2009; 4(11): 1670-80). Briefly, tumor samples stored in CryoStor™ CS10 storage medium were recovered and cut into about 2 mm3 fragments, soaked in Matrigel, and implanted into the subcutaneous space of Balb/c nude mice (5 mice/PDX). Tumors were harvested when they reach 1.5 cm in diameter for generating tissue slices for drug testing with quadruplicates.
About 100 tissue slices were produced from 1 tumorgraft with tissue slicer and arrayed in 96-well plates with previously established method (Roife D, et al, Clin Cancer Res 2016). […] Same volume of medium with 0.1% DMSO was added into control wells. After 72 hours, tissue viabilities were measured with PrestoBlue method. Viability inhibition will be calculated through normalization of viabilities of tissue slices treated with inhibitor against the viability of control (DMSO treated) slices. Inhibition of viability was further analyzed with t-test. […]

[2] = four mice treated with LHRH-curcumin twice a week (20 mg/kg)
Experimental: Samples of tumor tissue were weighed, then pulverized using a Bessman Tissue Pulverizer cooled 3-5 minutes in liquid nitrogen. Resultant powder was then placed in glass homogenizing chamber, mixed in PBS to 20% solution, and crushed to produce final homogenate. 200 Ml aliquot of homogenate was dispensed in Axygen 2 mL clear microtube (Part #: MCT-200-C-S). Each sample was extracted with 1 mL 10% methanol/90% ethyl acetate, vortexed, and spun 30 minutes at 14,000 rpm in a cold room centrifuge. The upper organic phase layer was then removed and placed in separate microcentrifuge tubes. The procedure was repeated, and pooled tumor extracts were concentrated using a Savant SpeedVac. Samples were reconstituted in 100 μL of 1 mM ascorbic acidic MeOH (pH 4.6), mixed in a sonication bath for 2 minutes, and 75 μL were injected on-column. Reverse-phase HPLC (Agilent 1100 series) with a Thermo ODS Hypersil 5 μm 250 mm×4.6 mm analytical column (Part #: 30105-252130) operated at ambient temperature was used to quantify curcumin in tumor. The mobile phase was 0.1% TFA (Mobile A) and acetonitrile with 0.08% TFA (Mobile B). […] With all analyses performed at 0.5 mL/min flow rate and fluorescence detection at Ex 420 nm and Em 524 nm, curcumin eluted at about 16.5 minutes.

[3] = tested on: XIAP, cIAP1 and cIAP2 mRNA in Panc-1 cells; test: Quantitative PCR of inhibitors of apoptosis, Panc-1; assay type: cell-based; settings: 50 uM, 24 h post-treatment, relative to DMSO, GAPDH reference
Experimental: mRNA levels of XIAP, c-IAP1 and c-IAP2 were determined by quantitative real-time PCR using the SYBR Green Real-Time PCR Master Mix form ThermoFisher. Thermal cycling was carried out using the CFX system from BioRad under the following conditions: 95° C. for 10 min and 40 cycles at 95° C. for 15 s and 55° C. for 60 s. mRNA expression for any given gene is represented as comparative to the DMSO-treated cells. GAPDH was used as the housekeeping gene of reference.
GAPDH was used as a reference. Results presented in FIG. 12A (XIAP relative mRNA levels), FIG. 12B (cIAP1 relative mRNA levels), FIG. 12C (cIAP2 relative mRNA levels).

physchem = settings: saline (PBS)

Question: Which spheroids growth [1] does the source give for `COc1cc(/C=C/C(=O)CC(=O)/C=C/c2ccc(OC(=O)CCCC(=O)NCCCC[C@@H](NC(=O)[C@H](Cc3ccc(O)cc3)NC(=O)[C@H](CO)NC(=O)[C@H](Cc3c[nH]c4ccccc34)NC(=O)[C@H](Cc3c[nH]cn3)NC(=O)[C@@H]3CCC(=O)N3)C(=O)N[C@@H](CC(C)C)C(=O)N[C@@H](CCCNC(=N)N)C(=O)N3CCC[C@H]3C(=O)NCC(N)=O)c(OC)c2)ccc1O` [LHRH-curcumin, [DLys6]-LHRH-Curcumin] here?
Answer: superior to that of LHRH or curcumin alone

Question: What about the “Sensitivity To LHRH-C” value (PATX162 tissue slices) of the same compound?
Answer: Sensitive (The tissue was defined as sensitive to the treatment if both p<0.05 and at least 30% of tissue slice viability on average was inhibited)

Question: What about the “free curcumin in tumor tissue extract (HPLC peak at approximately 16.5 min)” value [2] of the same compound?
Answer: free curcumin present in the extract

Question: And the “mRNA levels of XIAP, cIAP1 and c-IAP2” value [3]?
Answer: down-regulated

Question: What about the solubility (physchem) of the same compound?
Answer: ≥ 24 mg/mL
